Counter-ions that a name gives are not always drawn.
Experiments:
Human MC1R = target: T1, Human MC1R (Homo sapiens, UniProt Q01726); assay: Human MC1R agonistic activity measurement (cAMP assay) using human melanoma cell line HBL; assay type: cell-based; conditions: HBL cells; for Emax: 0.5 h, Intrinsic Activity, vehicle cAMP = 0%, αMSH at 10^-6 M = 100%, read-out: Human MC1R IA %; for EC50: intracellular cAMP, 37° C. for 30 minutes
T1 construct: endogenous in cells; host or cells: human melanoma cell line HBL
Method: (1) Method for Culturing Cells
Human MC1R agonistic activity measurement was carried out by using human melanoma cell line HBL. Culture of HBL: F-10 Nutrient Mixture comprising 10% FCS and Penicillin-streptomycin was used in the culture.
(2) cAMP Assay and Data Calculation
Each compound solution having each concentration was mixed with a cAMP assay buffer (HBSS (Hank's Balanced Salt Solution) comprising 10 mM HEPES and 0.1% BSA), and dispensed into a 96 well plate. HBL was suspended into a cAMP assay buffer comprising 0.5 mM IBMX so that the concentration became 5×10^4/mL, and the resulting suspension was dispensed into the above 96 well plate, then mixed, and left to stand at 37° C. for 30 minutes, and then the intracellular cAMP concentration was measured by a fluorescence method using Envision (ex. 320 nm, em. 590 nm and 665 nm). Each ratio value (665 nm measurement value/590 nm measurement value×10,000) was calculated from the resulting data, and the quantitative value of each cAMP concentration was calculated by using Prism 5.02, and induction % value (% of each sample when the average concentration value of cAMP of vehicle was set to be 0% and the average concentration value of cAMP of αMSH at 10^−6 M was set to be 100%) was calculated, and EC50 value and Intrinsic Activity (IA) % value were calculated.

human MC4R = human MC4R (Homo sapiens, UniProt P32245); assay: human MC4R agonistic activity; assay type: cell-based
human MC4R, sequence (P32245 whole entry): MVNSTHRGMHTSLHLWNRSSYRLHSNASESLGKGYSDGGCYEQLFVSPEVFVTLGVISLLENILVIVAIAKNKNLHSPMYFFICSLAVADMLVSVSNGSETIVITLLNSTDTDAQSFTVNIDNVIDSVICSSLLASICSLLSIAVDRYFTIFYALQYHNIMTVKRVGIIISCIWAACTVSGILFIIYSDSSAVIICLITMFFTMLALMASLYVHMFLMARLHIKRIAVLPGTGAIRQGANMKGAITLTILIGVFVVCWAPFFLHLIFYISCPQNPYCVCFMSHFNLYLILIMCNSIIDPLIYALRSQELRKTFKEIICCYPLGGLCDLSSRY

T1 sequence (Q01726 whole entry): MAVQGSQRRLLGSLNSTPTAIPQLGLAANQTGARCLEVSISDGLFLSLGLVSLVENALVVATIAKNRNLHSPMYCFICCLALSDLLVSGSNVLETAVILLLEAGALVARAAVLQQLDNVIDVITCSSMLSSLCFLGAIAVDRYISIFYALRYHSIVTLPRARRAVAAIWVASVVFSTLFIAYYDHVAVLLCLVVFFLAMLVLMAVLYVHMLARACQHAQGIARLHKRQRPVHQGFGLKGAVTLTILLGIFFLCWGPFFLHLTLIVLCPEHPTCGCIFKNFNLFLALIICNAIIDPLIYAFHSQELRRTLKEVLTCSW

Row | Structure (SMILES) | Emax (Human MC1R) | EC50 (Human MC1R) | EC50 (human MC4R)
1 | O=C(O)C1CCN(c2cc(C(F)(F)F)ccc2Cn2ccnc2NC(=O)[C@]2(F)CN(CCCS(=O)(=O)N3CCCC3)C[C@H]2c2ccc(F)cc2F)CC1 [Example 26, 1-[2-({2-[({(3R,4R)-4-(2,4-difluorophenyl)-3-fluoro-1-[3-(pyrrolidin-1-ylsulfonyl)propyl]pyrrolidin-3-yl}carbonyl)amino]-1H-imidazol-1-yl}methyl)-5-(trifluoromethyl)phenyl]piperidine-4-carboxylic acid] | 97% | 7.6 nM | 
2 | Cc1ccc(Cn2ccnc2NC(=O)[C@@H]2CN(CC[C@H]3Cc4ccccc4CN3)C[C@H]2c2ccc(F)cc2F)c(N2CCC(C(=O)O)CC2)c1 [Example 32, 1-(2-{[2-({[(3S,4R)-4-(2,4-difluorophenyl)-1-{2-[(3R)-1,2,3,4-tetrahydroisoquinolin-3-yl]ethyl}pyrrolidin-3-yl]carbonyl}amino)-1H-imidazol-1-yl]methyl}-5-methylphenyl)piperidine-4-carboxylic acid tetrahydrochloride] |  | 2.8 nM | 557 nM
3 | Cc1ccc(Cn2ccnc2NC(=O)[C@@H]2CN(C3(C)CCN(CCO)CC3)C[C@H]2c2ccc(F)cc2F)c(N2CCOCC2)c1 [Example 64, (3S,4R)-4-(2,4-difluorophenyl)-1-[1-(2-hydroxyethyl)-4-methylpiperidin-4-yl]-N-{1-[4-methyl-2-(morpholin-4-yl)benzyl]-1H-imidazol-2-yl}pyrrolidine-3-carboxamide] | 79% | 2.3 nM | 
4 | CC(C)(C)N1C[C@@H](C(=O)Nc2nccn2CC2(N3CCOCC3)CCCCC2)[C@H](c2ccc(F)cc2F)C1 [Example 70] | 58% | 83 nM | 
5 | Cc1ccc(Cn2ccnc2NC(=O)[C@@H]2CN(c3ccnc(C)c3)C[C@H]2c2ccc(F)cc2F)c(N2CCOCC2)c1 [Example 72] | 66% | 20 nM | 
6 | CC(C)(C)N1C[C@@H](c2ccc(F)cn2)[C@](F)(C(=O)Nc2nccn2Cc2ccc(C(F)(F)F)nc2N2CCOCC2)C1 [Example 80] | 76% | 68 nM | 
7 | Cc1ccc(Cn2ccnc2NC(=O)[C@@H]2CN(C(C)(C)C)C[C@H]2c2ccc(F)cc2F)c(N2CCC(C(=O)NS(=O)(=O)N(C)C)CC2)c1 [Example 85, 1-(2-{[2-({[(3S,4R)-1-tert-butyl-4-(2,4-difluorophenyl)pyrrolidin-3-yl]carbonyl}amino)-1H-imidazol-1-yl]methyl}-5-methylphenyl)-N-(dimethylsulfamoyl)piperidine-4-carboxamide trihydrochloride] | 98% | 16 nM | 

Continued, values first:

Row | Emax (Human MC1R) | EC50 (Human MC1R) | EC50 (human MC4R) | Structure (SMILES)
8 | 89% | 22 nM |  | COC(C)(C)CCCN1C[C@@H](c2ccc(F)cc2F)[C@](F)(C(=O)Nc2nccn2Cc2ccc(C)cc2N2CCC(C(=O)O)CC2)C1 [Example 13, 1-(2-{[2-({[(3R,4R)-4-(2,4-difluorophenyl)-3-fluoro-1-(4-methoxy-4-methylpentyl)pyrrolidin-3-yl]carbonyl}amino)-1H-imidazol-1-yl]methyl}-5-methylphenyl)piperidine-4-carboxylic acid]
9 | 88% | 6.7 nM |  | O=C(O)C1CCN(c2cc(C(F)(F)F)ccc2Cn2ccnc2NC(=O)[C@]2(F)CN(C3CCCC3)C[C@H]2c2ccc(F)cc2F)CC1 [Example 16, 1-[2-{[2-({[(3R,4R)-1-cyclopentyl-4-(2,4-difluorophenyl)-3-fluoropyrrolidin-3-yl]carbonyl}amino)-1H-imidazol-1-yl]methyl}-5-(trifluoromethyl)phenyl]piperidin-4-carboxylic acid]
10 | 83% | 3.5 nM |  | COC(C)(C)CCCN1C[C@@H](c2ccc(F)cc2F)[C@](F)(C(=O)Nc2nccn2Cc2ccc(C(F)(F)F)cc2N2CCC(C(=O)O)CC2)C1 [Example 19, 1-[2-{[2-({[(3R,4R)-4-(2,4-difluorophenyl)-3-fluoro-1-(4-methoxy-4-methylpentyl)pyrrolidin-3-yl]carbonyl}amino)-1H-imidazol-1-yl]methyl}-5-(trifluoromethyl)phenyl]piperidine-4-carboxylic acid]
11 | 91% | 25 nM |  | CN(C)C(=O)CCCN1CC(c2ccc(F)cc2F)C(C(=O)Nc2nccn2Cc2ccc(C(F)(F)F)cc2N2CCC(C(=O)O)CC2)(C(F)(F)F)C1 (stereo not drawn) [Example 28]
12 | 108% | 6 nM |  | CC(C)(C)N1C[C@@H](c2ccc(F)cc2)[C@](F)(C(=O)Nc2nccn2Cc2ccc(C(F)(F)F)cc2N2CCC(C(=O)O)CC2)C1 [Example 43, 1-[2-{[2-({[(3R,4R)-1-tert-butyl-3-fluoro-4-(4-fluorophenyl)pyrrolidin-3-yl]carbonyl}amino)-1H-imidazol-1-yl]methyl}-5-(trifluoromethyl)phenyl]piperidine-4-carboxylic acid]
13 | 96% | 2 nM |  | CC(C)c1ccc(Cn2ccnc2NC(=O)[C@]2(F)CN(C(C)(C)C)C[C@H]2c2ccc(F)cc2)c(N2CCC(C(=O)O)CC2)c1 [Example 49, 1-[2-{[2-({[(3R,4R)-1-tert-butyl-3-fluoro-4-(4-fluorophenyl)pyrrolidin-3-yl]carbonyl}amino)-1H-imidazol-1-yl]methyl}-5-(propan-2-yl)phenyl]piperidine-4-carboxylic acid]
14 | 118% | 1.6 nM |  | COc1ccc([C@@H]2CN(C(C)(C)C)C[C@@]2(F)C(=O)Nc2nccn2Cc2ccc(C(F)(F)F)cc2N2CCC(C(=O)O)CC2)cc1 [Example 52, 1-[2-{[2-({[(3R,4R)-1-tert-butyl-3-fluoro-4-(4-methoxyphenyl)pyrrolidin-3-yl]carbonyl}amino)-1H-imidazol-1-yl]methyl}-5-(trifluoromethyl)phenyl]piperidine-4-carboxylic acid]
15 | 109% | 2.8 nM |  | COc1ccc([C@@H]2CN(C(C)(C)C)C[C@@]2(F)C(=O)Nc2nccn2Cc2ccc(C(C)C)cc2N2CCC(C(=O)O)CC2)cc1 [Example 54, 1-[2-{[2-({[(3R,4R)-1-tert-butyl-3-fluoro-4-(4-methoxyphenyl)pyrrolidin-3-yl]carbonyl}amino)-1H-imidazol-1-yl]methyl}-5-(propan-2-yl)phenyl]piperidine-4-carboxylic acid]

— patent publication US10487072B2, “Substituted imidazoles as melanocortin receptor agonists” (MITSUBISHI TANABE PHARMA CORPORATION, priority 2015, dated 2019)
